pIC50: −log10 of the molar value. Several values for one entry are separate records, joined by “and”; a condition that tells them apart may be missing. Equal values may be shown once.
test system: P. falciparum 3D7 growth, pLDH absorbance; test: P. falciparum 3D7 growth inhibition, dose response, strain 3D7 (AID 2305)

Row | Compound | pIC50
1 | COc1ccccc1Cc1nc2ccccc2nc1SCC(=O)Nc1cccc(C(F)(F)F)c1 | 6.30
2 | CCNc1cc(C(=O)N[C@@H](Cc2ccccc2)[C@H](O)CNC(C)(C)CCCC(C)C)c(F)c(N2CCCS2(=O)=O)c1 | 6.70
3 | Cc1nnsc1C(=O)Nc1cccc(-c2cccc(-c3nc4ccc(F)cc4[nH]3)c2)c1 | 6.66
4 | COC(=O)c1ccc(C(=O)NCCCCN2CCC(c3ccc4c(c3OC)CCCC4)CC2)cc1-c1ccc(C(F)(F)F)cc1 | 5.94
5 | Cc1ccc(-n2c(=O)c3c(n4c(SC(C)C)nnc24)-c2ccccc2CC32CCCCC2)cc1 | 6.02
6 | O=S(=O)(c1ccccc1OC(F)(F)F)C1C[C@H]2CC[C@@H](C1)N2S(=O)(=O)c1cccc(C(F)(F)F)c1 (some centres not stated) | 6.17
7 | O=c1cc(NCCCNC2CCCc3c2ccc2ccccc32)[nH]c2ccccc12 (configuration not stated) | 6.09
8 | COc1ccc2nccc([C@@H](O)CN3CC[C@H](NCc4nc5c(cc4Cl)OCC(=O)N5)[C@H](F)C3)c2c1 | 5.88
9 | Clc1ccc2c(Cl)c(CNCCCNc3nc4ccccc4[nH]3)[nH]c2c1 | 6.66
10 | CCN1CCCC1CNC(=O)c1cc2c(-c3ccc(Cl)cc3)nn(C)c2s1 (configuration not stated) | 6.10
11 | CN1CCC(Oc2ccc(CN3CC[C@H](NC(=O)c4cccc(C#N)c4)C3)c3ccccc23)C1 (some centres not stated) | 6.10
12 | CNc1ccc(CNCc2cccc(-c3ccc(-c4nc5ccc(C(F)(F)F)cc5[nH]4)cc3)c2)cc1 | 6.96
13 | COc1ccc2c(c1)CC(C)(C)NC2CCCCCCCCC1NC(C)(C)Cc2cc(OC)ccc21 (configuration not stated) | 5.89
14 | CC[C@H]1CN2CCc3cc(OC)c(OC)cc3[C@@H]2C[C@@H]1CC1=NCCc2c1[nH]c1ccc(OCc3ccccc3)cc21 | 6.11
15 | O=C(CCc1cnc[nH]1)Nc1ccc(-c2ccc(-c3nc4ccc(F)cc4[nH]3)cc2)cc1 | 6.16
16 | COc1ccc(Br)cc1C1[C@@H]2C(=O)N(c3ccc(Br)cc3)C(=O)[C@@H]2C2(C(=O)O)CC(OCc3ccccc3)CN12 (some centres not stated) | 6.72
17 | CCCCNC(=O)[C@H](CC1CCCCC1)NC(=O)c1ccc(O)c(-c2ccc(Cl)c(Cl)c2)c1 | 6.80
18 | CCCCCCCC/C=C\CCCCCCCC(=O)NCc1ccc(O)c(OC)c1 | 6.40
19 | CC(=O)Nc1ccc(S(=O)(=O)Nc2ccc(Nc3nc(C)cc(N(C)C)n3)cc2)cc1 | 5.94
20 | Cc1ccc(N2C(=O)C3C(C2=O)[C@]2(c4ccccc4)C(=O)[C@@]3(c3ccccc3)C(c3ccccc3)=C2c2ccccc2)cc1 (some centres not stated) | 6.06
21 | CN(C)CCNC(=O)c1ccc(-c2cnc3ccc(NCc4ccc(Cl)c(Cl)c4)nn23)cc1 | 6.04
22 | NC1=NC(c2ccccc2)(c2ccccc2)C(=O)N1CCCCc1ccccc1 | 6.12
23 | Cc1ccc(F)c(OCC2CCN(c3ncc(C(=O)NC4CC4)cc3Cl)CC2)c1 | 6.05

Row | Compound | pIC50
24 | CC(=O)N/N=C/[C@H](CCc1ccccc1)NC(=O)[C@H](CC(C)C)NC(=O)c1cccc(OCCN2CCOCC2)c1 | 6.62
25 | Clc1ccc(NC(=NCCCCCCCN=C(Nc2ccc(Cl)cc2)Nc2ccc(Cl)cc2)Nc2ccc(Cl)cc2)cc1 | 6.49
26 | CCCC1N=C(N)N=C(N)N1c1ccc(OC)cc1 (configuration not stated) | 6.64
27 | Cc1cc(-c2nc3ccc(C(=N)N)cc3[nH]2)c(C)cc1-c1nc2ccc(C(=N)N)cc2[nH]1 | 6.40
28 | CN(C)C(=O)CC(=O)NCc1c(Cl)cccc1Cl | 6.70
29 | Cc1cc(N[C@@H](CC(C)C)C(=O)NCc2cccc(F)c2)nc(NCCc2ccc(F)cc2)n1 | 5.83
30 | O=C(Cc1ccc(Cl)cc1)Nc1cc(Cl)ccc1Cn1cnc(N2CCNCC2)cc1=O | 6.00
31 | COc1ccc2cc(-c3nc(-c4c(Cl)cccc4Cl)[nH]c3-c3ccnc(NCCC4CCCN4C)c3)ccc2c1 (configuration not stated) | 5.99
32 | Clc1cc(Nc2ncnc3sc(C#Cc4ncc[nH]4)cc23)ccc1OCc1ccccn1 | 5.95
33 | Cc1c(Cl)ccc2sc(N3CCN(C(=O)c4ccc([N+](=O)[O-])o4)CC3)nc12 | 6.12
34 | N#Cc1cccc(C(=O)NC2CCN(CCCCCNC(=O)/C=C/c3ccc(Cl)c(Cl)c3)CC2)c1 | 6.06
35 | O=C(CCCCCNC(=O)c1ccc(O)c(-c2ccc(Cl)c(Cl)c2)c1)NCc1cccc2ccccc12 | 6.12
36 | O=C(Nc1ccc([N+](=O)[O-])cc1)Nc1cc(OCC(F)(F)F)cc(OCC(F)(F)F)c1 | 6.33
37 | CC(=O)Nc1cccc(-c2cn(-c3ccc(OCc4cccc(F)c4)c(Cl)c3)c3ncncc23)c1 | 7.15
38 | Cc1cc(CNCCCCCCNCc2cccc([N+](=O)[O-])c2)ccc1O | 6.14
39 | Cc1ccccc1C1CCN(C2CCC(NC(=O)/C=C/c3cccc(Cl)c3Cl)CC2)CC1 (configuration not stated) | 5.99
40 | NC1CCN(c2nc(NCCCc3ccc(O)cc3)nc(NCc3ccccc3-c3ccc(C(F)(F)F)cc3)n2)CC1 | 6.14
41 | O=C(Nc1cccc(C(F)(F)F)c1)c1ccc(S(=O)(=O)NC2CCN(CC3CCCCC3)C2)cc1 (configuration not stated) | 6.10
42 | CN(CCCCCNC(=O)/C=C/c1ccc(Cl)c(Cl)c1)CCc1c[nH]c2ccccc12 | 6.06
43 | c1ccc(Oc2ccc(Nc3ccnc4cc(-c5csc(CNCCN6CCOCC6)n5)ccc34)cc2)cc1 | 6.15
44 | CC(=O)Nc1ncc(C(=O)Nc2cccc(-c3cccc(-c4nc5ccc(C(F)(F)F)cc5[nH]4)c3)c2)s1 | 6.74
45 | Cc1cnc(CCNC(=O)c2cc(-c3ccc(Cl)cc3)cs2)[nH]1 | 6.62
46 | Cc1cccc2[nH]c(-c3cccc(-c4ccc(CNCCc5ccncc5)cc4)c3)nc12 | 6.92

Row | Compound | pIC50
47 | CO/C(=C\C=C\c1cc2cc(Cl)c(Cl)cc2[nH]1)C(=O)NCCN1CCCCC1 | 5.85
48 | CN1CCN(Cc2cccc(Nc3nccc(Nc4ccc(Oc5ccccc5)cc4)n3)c2)CC1 | 6.52
49 | CN(CCCCCN1CCC(NC(=O)Nc2ccc(C(F)(F)F)cc2)C1)C(=O)/C=C/c1ccc(Cl)c(Cl)c1 (configuration not stated) | 6.11
50 | COc1ccc(CCn2c(=N)c(C(=O)NCc3ccccc3)cc3c(=O)n4ccccc4nc32)cc1 | 6.12
51 | COc1ccccc1C1CC(c2ccc(Br)cc2)=NN1C(=O)c1ccccc1 (configuration not stated) | 5.95
52 | NC(=O)COc1cccc2c1CCN(CCN1CCC(NC(=O)c3ccc(-c4ccc(Cl)cc4)cc3)CC1)C2 | 6.08
53 | CCN1CCN(CCCNc2c3ccc(Cl)cc3nc3ccc(OC)cc23)CC1 | 6.82
54 | CCc1cc(OC)c(C(=O)NC2CCN(C[C@H](O)c3ccnc4ccc(OC)cc34)CC2)cc1Br | 6.09
55 | O=C(C=Cc1ccccc1C(F)(F)F)NC1CCC(CN2CCC(c3c[nH]c4ccccc34)CC2)CC1 (configuration not stated) | 6.05 and 6.17
56 | NC1=NC2(CCCCC2)N(OCCCCCCc2ccccc2)C(N)=N1 | 6.46
57 | N#Cc1ccc(CN2CCCN(Cc3cccc(NC(=O)c4ccc(-c5ccccc5)cc4)c3)CC2)cc1 | 5.99
58 | CC(=O)Nc1csc(-c2cnc(/C=C(\C)C[C@@H]3OC[C@H](C[C@@H]4O[C@H]4[C@@H](C)[C@H](C)O)[C@@H](O)[C@H]3O)o2)c1 | 6.74
59 | Cc1ccccc1C1CCN(C2CCC(NC(=O)/C=C/c3cccc(Cl)c3F)CC2)CC1 (configuration not stated) | 5.94
60 | Cc1ccccc1C1CCN(c2ncc(C(=O)Nc3ccccc3)cc2Cl)CC1 | 6.00
61 | CCCNCc1ccc(-c2ccc(CN(CCOC)C(=O)CC3CCCC3=O)cc2)nc1 (configuration not stated) | 5.91
62 | CCOC(=O)c1ccc(N(CCCN(CCCN(c2ccc(C(=O)OCC)cc2)S(=O)(=O)c2ccc(C)cc2)CCc2ccc(O)cc2)S(=O)(=O)c2ccc(C)cc2)cc1 | 5.98
63 | C[C@H](NC(=O)c1c(OC2CN(C(c3ccccc3)c3ccccc3)C2)c(-c2ccccc2)nc2ccccc12)C1CCCCC1 | 6.01
64 | COc1ccc(C2C(C(=O)OC3CCCCC3)=C(C)NC3=C2C(=O)CCC3)cc1Br (configuration not stated) | 6.24
65 | Cc1cnc(NCCc2ccc(F)cc2)nc1NCCC(=O)Nc1ccccc1 | 6.02
66 | Clc1ccc(OCc2ccccc2)c(-c2nc(-c3nc4ccc(Cl)cc4[nH]3)cs2)c1 | 6.17
67 | CN1CCN(CCCNCc2cccc(-c3ccc(CNCCc4ccccc4)cc3)c2)CC1 | 6.11
68 | COc1ccccc1C(=O)Nc1ccc(Nc2nc(C)cc(N(C)C)n2)cc1 | 6.10
69 | COc1ccc(-c2cccc(NC(=O)c3ccc(Cl)cc3)c2)cc1CN1CCCN(C)CC1 | 6.41

Row | Compound | pIC50
70 | COc1cccc(CNC(=O)c2ccnc(-c3ccc(CNCCOc4ccccc4)cc3)c2)c1 | 5.92
71 | Cc1cc(NC2CCCC2)nc(Nc2ccccc2)n1 | 6.00
72 | COc1ccc2ncc(F)c(C(O)CN3CCC(NCc4ccc5c(n4)NC(=O)CO5)CC3)c2c1 (configuration not stated) | 5.95 and 6.43
73 | CCc1c(CCNCCCCCCNC(C)(C)Cc2ccc3c(c2CC)OCO3)ccc(OC)c1OC | 6.03
74 | COc1ccccc1CCNc1nc(C)cc(N[C@@H](CC(C)C)C(=O)NCc2cccs2)n1 | 6.10
75 | CCCc1cc(N2CCC(N(CC)CC)C2)nc(Nc2ccc(OC)cc2)n1 (configuration not stated) | 6.77
76 | CC(C)COc1ccc(Cl)cc1Nc1nc(-c2nc3ccccc3[nH]2)cs1 | 6.06
77 | C[C@@H]1CN(c2cnn(Cc3ccc(NC(=O)Nc4cccc(C(F)(F)F)c4)cc3)c(=O)c2Cl)C[C@H](C)N1 | 6.03
78 | CC(C)CNCc1cccc(-c2cccc(CN(CCCN3CCN(C)CC3)C(=O)/C=C/c3ccccc3)c2)c1 | 6.03
79 | COc1ccc(-c2onc(C(F)(F)F)c2-c2cc3ccccc3o2)c(O)c1 | 6.07
80 | COc1ccc(Cc2cnc3nc(N)nc(N)c3c2C)cc1OC | 8.00
81 | CC(C)NCc1ccc(-c2cccc(-c3nc4ccc(F)cc4[nH]3)c2)cc1 | 6.39
82 | Cc1[nH]nc2ccc(-c3cc(OC[C@@H](N)Cc4ccccc4)cnc3-c3ccccc3OCc3cccc(F)c3)cc12 | 5.91
83 | COc1ccccc1N1CCN(c2cccc(F)c2C#N)CC1 | 6.02
84 | OC1(c2ccc(Cl)c(C(F)(F)F)c2)CCN(CCOC2c3ccccc3CSc3ccc(Cl)cc32)CC1 (configuration not stated) | 6.10
85 | O=C(Nc1ccccc1)N(Cc1cccc(-c2ccc(CNCCc3ccccc3)cc2)c1)C1CCN(Cc2ccccc2)CC1 | 6.46
86 | COc1cc2nc(N3CCC(CNC(=O)c4ccc(-c5ccc(C(F)(F)F)cc5)cc4)CC3)nc(N)c2cc1OC | 6.89
87 | CN1CCN(CCCN(Cc2ccc(-c3ccc(CNCCc4ccccc4)cc3)cc2)C(=O)c2cccs2)CC1 | 5.84
88 | O=C(Nc1ccc(Cl)cc1F)N[C@H]1CCN(CCCCCNC(=O)[C@@H]2C[C@H]2c2ccc(Cl)c(Cl)c2)C1 | 5.96
89 | Cc1cc(N[C@@H](Cc2ccccc2)C(=O)NCc2cccs2)nc(NCCc2cccnc2)n1 | 6.00
90 | CCCCN(C(=O)c1ccccc1Cl)c1nnc(-c2ccccc2C)s1 | 5.99
91 | Cc1cc(C(=O)Nc2ccc3c(c2)CCN3C2CCN(Cc3ccc(F)cc3Cl)C2)no1 (configuration not stated) | 6.72
92 | O=C(NC1CCC(CN2CCC(c3c[nH]c4ccccc34)CC2)CC1)c1cc(-c2ccccc2Cl)oc1C(F)(F)F (configuration not stated) | 6.11
